What was measured:
[1] = Solubility of each compound in a DMSO solution; format: physicochemical
Description: In terms of the solubility of each compound in a DMSO solution, a comparison was made among the compound represented by the Formula (2), the compounds represented by the formulae (11) and (14), and a compound in which a halogen atom or the like has not been introduced into the thiophene ring of the compound of the formula (2) (4-((6-methoxy-3-pyridinyl)methylene)-2-(2-thienyl)-5(4H)-oxazolone). The compound represented by the formula (2) and the compounds represented by the formulae (11) and (14) were easily dissolved in final concentrations of 35 mM, 10 mM and 20 mM, respectively, in the DMSO solution. On the other hand, the compound in which a halogen atom or the like has not been introduced into the thiophene ring of the compound of the formula (2) was dissolved in a final concentration of 10 mM in the DMSO solution by being intensively stirred.

rats [2] = test: Rat circadian rhythm disorder model (momentum and non-REM sleep under LD conditions); format: in vivo; settings: for momentum / non-REM sleep amount: 60 mg/kg intraperitoneal immediately before dark period, vs untreated rats
Procedure: Specifically, rats were acclimatized for one or more weeks under light/dark (LD) conditions consisting of a light period for 12 hours and a dark period for 12 hours. Immediately before the beginning of the dark period, the compound represented by the formula (11) was mixed with a solubilizing agent, and the mixture was intraperitoneally administered to each rat at a dose of 60 mg/kg. […] On the other hand, with regard to a compound in which as halogen group or the like had not been introduced into the thiophene ring of the compound represented by the formula (2) ((4-((6-methoxy-3-pyridinyl)methylene)-2-(2-thienyl)-5(4H)-oxazolone)), the same test as described above was carried out.

[3] = molecular target: T1, human recombinant casein kinase 1δ (Homo sapiens, UniProt P48730); test: Casein kinase 1δ inhibition, Z'-LYTE Ser/Thr 11 Peptide assay; format: biochemical; settings: 0.3 μg/ml compound; for inhibition at 0.3 µg/mL: 20 μM ATP, 3.0 or 1.0 μg/ml enzyme, formula (2) high-purity from Scheme 2, read-out: Casein kinase 1δ inhibition percentage
T1 construct: purchased INVITROGEN PV3665
Procedure: (§1) The activity of the present compound to inhibit casein kinase 1δ and casein kinase 1ε was measured using human recombinant casein kinase 1δ (INVITROGEN; Cat No. PV3665) or human recombinant casein kinase 1ε (INVITROGEN; Cat No. PV3500) as an enzyme source, and also using Z′-LYTE Ser/Thr 11 Peptide (INVITROGEN; Cat No. PV3671) as a phosphorylation substrate. The composition (final concentration) applied during each inhibitory activity measurement assay is as follows.
Assay for Casein Kinase 1δ
3.0 μg/ml or 1.0 μg/ml casein kinase 1δ, 0.3 μg/ml the present compound, 1.0 μM Peptide, 20 μM ATP, 50 mM HEPES (pH 7.4), 10 mM MgCl2, 0.01% Brij-35, and 0.5% DMSO
(§2) The present compound was previously allowed to react with the enzyme at room temperature, for 15 minutes. Two hours later, the remaining phosphorylation activity was measured using Z′-LYTE Kinase Assay Kit-Ser/Thr 11 Peptide (INVITROGEN; Cat No. PV3670).
(§3) The inhibition percentage of the present compound against the phosphotylation activity of each of casein kinase 1δ and casein kinase 1ε to which the present compound had not been added, was calculated.

[4] = molecular target: T2, human recombinant casein kinase 1ε (Homo sapiens, UniProt P49674); test: Casein kinase 1ε inhibition, Z'-LYTE Ser/Thr 11 Peptide assay; format: biochemical; settings: 0.3 μg/ml compound; for inhibition at 0.3 µg/mL: 20 μM ATP, 0.5 μg/ml enzyme, formula (2) high-purity from Scheme 2, read-out: Casein kinase1ε inhibition percentage
T2 construct: purchased INVITROGEN PV3500
Procedure: as §1
Assay for Casein Kinase 1ε
0.5 μg/ml casein kinase 1ε, 0.3 μg/ml the present compound, 1.0 μM Peptide, 20 μM ATP, 50 mM HEPES (pH 7.4), 10 mM MgCl2, 0.01% Brij-35, and 0.5% DMSO
as §2, §3

[5] = system: various types of kinases (MAPKAPK2, AurA, PKCζ, RSK1, PRAK, Erk1, PKD2, CHK1, ABL, FYN, LYN, CHK2, MET, LCK, SRC, GSK3β, Erk2, PKA, AKT2, INSR, p38α, AKT1 …); test: Inhibitory specificity to various types of kinases, Profiler Pro kit; format: biochemical; settings: final concentration of 10 μM, 1 μM or 0.1 μM; reacted 15 minutes
Procedure: The inhibitory specificity of the casein kinase 1δ to and casein kinase 1ε inhibiting compounds to various types of kinases can be examined using Profiler Pro kit (manufactured by Caliper Life Sciences) in accordance with the method described in an instruction manual included therewith. The compounds represented by the formulae (2), (11) and (14) were each allowed to react with various types of kinases for 15 minutes, resulting in the final concentration of 10 μM, 1 μM or 0.1 μM. After completion of the reaction, enzyme activity was examined.

[6] = molecular target: Dual specificity tyrosine-phosphorylation-regulated kinase 1A (DYRK1A) (Homo sapiens, UniProt Q13627); test: DYRK1A inhibition, Profiler Pro kit method; format: biochemical; settings: compound 1 μM; read-out: DYRK1A enzyme activity inhibition percentage
Description: As with casein kinase 1δ, this DYRK1A has been known as a candidate kinase for phosphorylating tau proteins, and also as a kinase for controlling circadian rhythm.

[7] = molecular target: T3, human recombinant casein kinase 1δ (substrate human recombinant tau) (Homo sapiens, UniProt P48730); test: Casein kinase 1δ inhibition with tau as substrate (Phos-tag Western blotting); format: biochemical; settings: compound 25 μM to 1 μM, 200 μM ATP, vs reaction solution without compound
T3 construct: purchased Carna Biosciences 03-103
Procedure: The activity of the present compound to inhibit casein kinase 1δ having tau as a substrate can be examined using human recombinant casein kinase 1δ (Carna Biosciences; Cat No. 03-103) as an enzyme source and also using human recombinant tau (Sigma-Aldrich; Cat No. T0576) as a phosphorylation substrate. The composition (final concentration) applied during the inhibitory activity measurement assay is as follows.
25 μg/ml casein kinase 1δ, 10 μg/ml tau, the present compound (25 μM to 1 μM), 200 μM ATP, 50 mM HEPES (pH7.4), 10 mM MgCl2, 0.01% Brij-35, 200 μM Na3VO4, and 0.25% DMSO
The present compound has previously been allowed to react with the enzyme at room temperature for 15 minutes, and tau is then added to the reaction product. Thereafter, a phosphorylation reaction is carried out for 2 hours. After completion of the phosphorylation reaction, the reaction solution is subjected to Western blotting, so that the phosphorylation of the human recombinant tau transcribed on a PVDF membrane is detected using Phos-tag (NARD Institute, Ltd.; Cat No. BTL-104) according to a chemiluminescence method (ECL Plus; GE Healthcare; Cat No. RPN2132). The PVDF membrane after detection of the phosphorylation reaction is deprobed in accordance with the protocols of the Phos-tag, and thereafter, a total tau protein content can be detected by an antibody reaction. […]

[8] = system: N2A cells (N2A-APP695 cells); settings: N2A-APP695 cells excessively expressing constitutively active casein kinase 1ε; cited from earlier work
[9] = system: human pancreatic cancer cell line; settings: added in vitro; cited from earlier work
[10] = system: pancreatic cancer cell line transplanted into the subcutis of a mouse; settings: subcutaneous transplant; cited from earlier work
rats [11] = settings: subcutaneous administration; cited from earlier work
p38α = p38α (Homo sapiens, UniProt Q16539); settings: cited from earlier work
[12] = low-purity compound obtained by Scheme 1

T1 sequence (P48730 whole entry): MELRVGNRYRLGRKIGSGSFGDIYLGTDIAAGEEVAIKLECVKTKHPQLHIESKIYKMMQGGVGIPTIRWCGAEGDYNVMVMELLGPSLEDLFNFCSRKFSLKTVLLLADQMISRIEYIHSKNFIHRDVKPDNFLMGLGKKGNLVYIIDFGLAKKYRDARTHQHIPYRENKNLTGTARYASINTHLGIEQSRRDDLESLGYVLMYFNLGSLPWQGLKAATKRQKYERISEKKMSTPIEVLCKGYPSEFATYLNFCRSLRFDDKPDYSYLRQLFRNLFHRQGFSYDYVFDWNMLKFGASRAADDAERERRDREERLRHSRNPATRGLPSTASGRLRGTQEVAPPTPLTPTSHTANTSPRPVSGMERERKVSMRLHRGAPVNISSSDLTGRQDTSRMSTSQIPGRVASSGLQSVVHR
T2 sequence (P49674 whole entry): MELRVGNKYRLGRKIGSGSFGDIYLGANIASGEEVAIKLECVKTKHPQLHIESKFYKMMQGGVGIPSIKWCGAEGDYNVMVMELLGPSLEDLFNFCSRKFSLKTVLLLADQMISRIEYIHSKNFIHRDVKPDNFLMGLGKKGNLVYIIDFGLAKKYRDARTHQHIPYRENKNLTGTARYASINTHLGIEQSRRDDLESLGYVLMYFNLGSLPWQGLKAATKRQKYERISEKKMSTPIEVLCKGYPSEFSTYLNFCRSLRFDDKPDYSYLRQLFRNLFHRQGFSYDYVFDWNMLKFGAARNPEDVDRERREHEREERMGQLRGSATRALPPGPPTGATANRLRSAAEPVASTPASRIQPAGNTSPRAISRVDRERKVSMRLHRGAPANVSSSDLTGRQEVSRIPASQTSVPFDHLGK
T3 sequence (P48730 whole entry): as the sequence (P48730 whole entry) above
Sequence of p38α (Q16539 whole entry): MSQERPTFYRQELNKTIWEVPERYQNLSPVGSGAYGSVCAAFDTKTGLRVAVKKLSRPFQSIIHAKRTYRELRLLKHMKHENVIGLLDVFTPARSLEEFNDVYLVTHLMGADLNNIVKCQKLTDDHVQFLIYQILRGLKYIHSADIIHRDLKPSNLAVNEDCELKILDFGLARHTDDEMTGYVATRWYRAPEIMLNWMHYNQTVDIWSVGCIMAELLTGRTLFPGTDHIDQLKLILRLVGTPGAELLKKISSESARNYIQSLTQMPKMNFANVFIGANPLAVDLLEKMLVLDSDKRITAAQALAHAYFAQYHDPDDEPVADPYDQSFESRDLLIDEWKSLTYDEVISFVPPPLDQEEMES

Row | inhibition at 0.3 µg/mL [3] | inhibition at 0.3 µg/mL [4] | final concentration dissolved in the DMSO solution ([1]; easily dissolved) | inhibition at 1 µM [6] | inhibition of phosphorylation of tau by casein kinase 1δ (phosphorylation rate of tau) [7] | SMILES | momentum (rats [2]) | non-REM sleep amount (rats [2]) | inhibitory activity against various types of kinases causing concerns about side effects [5] | further results
1 | – | – | – | – | – | COc1ccc(C=C2N=C(c3cccs3)OC2=O)cn1 [4-((6-methoxy-3-pyridinyl)methylene)-2-(2-thienyl)-5(4H)-oxazolone, reference compound] | significant reduction | increase | – | final concentration dissolved in the DMSO solution ([1]; dissolved by being intensively stirred): 10 mM
2 | 83% | 97.7% | 35 mM | 65% | significant inhibition | COc1ccc(/C=C2\N=C(c3ccc(F)s3)OC2=O)cn1 [Formula (2), 4-((6-Methoxy-3-pyridinyl)methylene)-2-(5-fluoro-2-thienyl)-5(4H)-oxazolone] | – | – | did not have significant inhibitory activity | inhibitory activity against casein kinase 1δ [3, 12]: significant inhibitory activity; inhibitory activity against casein kinase 1ε [4, 12]: significant inhibitory activity
3 | 77.9% | 94.8% | 10 mM | 78% | significant inhibition | COc1ccc(/C=C2\N=C(c3ccc(Cl)s3)OC2=O)cn1 [Formula (11), 4-((6-Methoxy-3-pyridinyl)methylene)-2-(5-chloro-2-thienyl)-5(4H)-oxazolone] | statistically significant reduction | increase | did not have significant inhibitory activity | medicinal effect compared with the compound without halogen on the thiophene ring (rats [2]; same test): significantly higher
4 | 77.8% | 95% | 20 mM | 85% | – | COc1ccc(/C=C2\N=C(c3ccc(Br)s3)OC2=O)cn1 [Formula (14)] | – | – | did not have significant inhibitory activity | –
5 | – | – | – | – | – | COc1cc(OC)c(C=C2C(O)=Nc3ccccc32)c(OC)c1 [IC261] | – | – | – | amounts of Aβ40 and Aβ42 [8]: decreased; cell growth [9]: suppression of the cell growth; growth of tumor cells [10]: significant effect of suppressing the growth of tumor cells
6 | – | – | – | – | – | Nc1nccc(-c2c(-c3ccc(F)cc3)ncn2C2CCCCC2)n1 [PF-670462, 4-[3-cyclohexyl-5-(4-fluoro-phenyl)-3H-imidazol-4-yl]-pyrimidin-2-ylamine] | – | – | – | phase of circadian rhythm (rats [11]): significantly delayed; inhibitory action against p38α (p38α): exhibit inhibitory action

Source: patent US8710231B2, “Inhibitor of casein kinase 1delta and casein kinase 1E” (Pharmadesign, Inc., priority 2010, dated 2014)
